Measured values published in BindingDB's records for doi:10.1021/jm00396a028 (Merck Sharp & Dohme Research Laboratories, 1988).

Assay: Displacement of [125I]gastrin from guinea pig gastric glands

SMILES | IC50 [µM]
O=C(NC1N=C(c2ccccc2)c2ccccc2-n2cnnc21)OCc1ccccc1 (stereo not drawn) [(6-Phenyl-4H-2,3,5,10b-tetraaza-benzo[e]azulen-4-yl)-carbamic acid benzyl ester(0.25EtOAc)] | 4.8
O=C(NC1N=C(c2ccccc2F)c2ccccc2-n2cnnc21)OCc1ccccc1 (stereo not drawn) [[6-(2-Fluoro-phenyl)-4H-2,3,5,10b-tetraaza-benzo[e]azulen-4-yl]-carbamic acid benzyl ester] | 3
Cc1nnc2n1-c1ccc(Cl)cc1C(c1ccccc1)=NC2 | > 100
O=C(NC1N=C(c2ccccc2F)c2ccccc2-n2cnnc21)c1cc2ccccc2[nH]1 (stereo not drawn) [1H-Indole-2-carboxylic acid [6-(2-fluoro-phenyl)-4H-2,3,5,10b-tetraaza-benzo[e]azulen-4-yl]-amide(0.1EtOAc)] | 0.065
O=C(NC1N=C(c2ccccc2F)c2ccccc2-n2cnnc21)c1ccc(Cl)cc1 (stereo not drawn) [4-Chloro-N-[6-(2-fluoro-phenyl)-4H-2,3,5,10b-tetraaza-benzo[e]azulen-4-yl]-benzamide] | 2.4
Fc1ccccc1C1=N[C@H](Cc2c[nH]c3ccccc23)c2nnc(C(Cl)(Cl)Cl)n2-c2ccccc21 [6-(2-Fluoro-phenyl)-4-(1H-indol-3-ylmethyl)-1-trichloromethyl-4H-2,3,5,10b-tetraaza-benzo[e]azulene(0.5CHCl3)] | > 100
Cc1nnc2n1-c1ccccc1C(c1ccccc1F)=NC2NC(=O)c1cc2ccccc2[nH]1 (stereo not drawn) [1H-Indole-2-carboxylic acid [6-(2-fluoro-phenyl)-1-methyl-4H-2,3,5,10b-tetraaza-benzo[e]azulen-4-yl]-amide(0.2EtOAc)] | 0.007
CN(C)Cc1nnc2n1-c1ccccc1C(c1ccccc1F)=N[C@@H]2Cc1c[nH]c2ccccc12 [[6-(2-Fluoro-phenyl)-4-(1H-indol-3-ylmethyl)-4H-2,3,5,10b-tetraaza-benzo[e]azulen-1-ylmethyl]-dimethyl-amine(0.22CHCl3)] | 60
O=C(Nc1ccc(Cl)cc1)NC1N=C(c2ccccc2)c2ccccc2-n2cnnc21 (stereo not drawn) [1-(4-Chloro-phenyl)-3-(6-phenyl-4H-2,3,5,10b-tetraaza-benzo[e]azulen-4-yl)-urea] | 0.38
Cc1nnc2n1-c1ccccc1C(c1ccccc1)=NC2NC(=O)Nc1ccc(Cl)cc1 (stereo not drawn) [1-(4-Chloro-phenyl)-3-(1-methyl-6-phenyl-4H-2,3,5,10b-tetraaza-benzo[e]azulen-4-yl)-urea] | 0.38
Cc1nnc2n1-c1ccc(Cl)cc1C(c1ccccc1Cl)=NC2 [Halcion] | > 100
Fc1ccccc1C1=N[C@H](Cc2c[nH]c3ccccc23)c2nnc(-c3ccccc3)n2-c2ccccc21 [6-(2-Fluoro-phenyl)-4-(1H-indol-3-ylmethyl)-1-phenyl-4H-2,3,5,10b-tetraaza-benzo[e]azulene(0.55CHCl3)] | > 100
Fc1ccccc1C1=N[C@H](Cc2c[nH]c3ccccc23)c2nncn2-c2ccccc21 [6-(2-Fluoro-phenyl)-4-(1H-indol-3-ylmethyl)-4H-2,3,5,10b-tetraaza-benzo[e]azulene(0.5CHCl3)] | 25
